Data from ChEMBL document CHEMBL5096199, “Structure-Based Optimization of Small Molecule Human Galactokinase Inhibitors” (J Med Chem, 2021).
In brackets after ≈: the same amount, converted by molar mass.

How the values were obtained:
[1] = Permeability of the compound at pH 7.4 measured after 30 mins by PAMPA based LC/MS analysis; type: ADME; conditions: for Papp at 0.5 h: PAMPA, pH 7.4, read-out: permeability
[2] = target: T1, Galactokinase (Homo sapiens, UniProt P51570); assay: Inhibition of recombinant human GALK1 using galactose as substrate incubated for 1 hrs in the presence of ATP by Kinase-Glo reagent based luminescence assay
[3] = Metabolic stability in mouse liver microsome assessed as half life; type: ADME; conditions: microsomes
[4] = Metabolic stability in human liver microsomes assessed as half life; type: ADME, Microsome
[5] = physchem; conditions: phosphate buffer, pH 7.4
Description: Kinetic solubility of the compound in phosphate buffer at pH 7.4 at 150 uM incubated for 6 hrs by shake-flask method

[6] = AUClast in CD-1 mouse at 30 mg/kg, po measured upto 24 hrs by LC-MS/MS analysis; type: ADME, organism-based; design: dose 30 mg/kg, time < 24 hrs, route po; conditions: in vivo
[7] = Cmax in CD-1 mouse at 50 mg/kg, ip measured upto 24 hrs by LC-MS/MS analysis; type: ADME, organism-based; design: dose 50 mg/kg, time < 24 hrs, route ip; conditions: in vivo
[8] = C0 in CD-1 mouse at 3 mg/kg, iv measured upto 24 hrs by LC-MS/MS analysis; type: ADME, organism-based; conditions: in vivo
[9] = Tmax in CD-1 mouse at 50 mg/kg, ip measured upto 24 hrs by LC-MS/MS analysis; type: ADME, organism-based; conditions: in vivo
[10] = AUCinfinity in CD-1 mouse at 50 mg/kg, ip measured upto 24 hrs by LC-MS/MS analysis; type: ADME, organism-based; design: time < 24 hrs, dose 50 mg/kg, route ip; conditions: in vivo
[11] = Drug concentration in CD-1 mouse plasma at 50 mg/kg, ip measured after 7 hrs by LC-MS/MS analysis; type: ADME, organism-based
[12] = Drug concentration in CD-1 mouse plasma at 3 mg/kg, iv measured after 2 hrs by LC-MS/MS analysis; type: ADME, organism-based; conditions: in vivo, BLD = below limit of detection
[13] = AUClast in CD-1 mouse at 50 mg/kg, ip measured upto 24 hrs by LC-MS/MS analysis; type: ADME, organism-based; design: time < 24 hrs, dose 50 mg/kg, route ip; conditions: in vivo
[14] = target: T1, Galactokinase; assay: Inhibition of human GALK1 in GALT-deficient human fibroblast assessed as reduction in gal-1P level at 3 uM incubated for 2 to 4 hrs by cellular Gal-1P accumulation assay relative to control; type: cell-based; conditions: time 2-4 hrs
[15] = Half life in CD-1 mouse at 50 mg/kg, ip measured upto 24 hrs by LC-MS/MS analysis; type: ADME, organism-based; conditions: in vivo
[16] = Plasma protein binding in CD-1 mouse; type: ADME, cell-free
[17] = Tmax in CD-1 mouse at 30 mg/kg, po measured upto 24 hrs by LC-MS/MS analysis; type: ADME, organism-based; conditions: in vivo
[18] = Dose normalized AUClast in CD-1 mouse at 30 mg/kg, po measured upto 24 hrs by LC-MS/MS analysis; type: ADME, organism-based; conditions: in vivo
[19] = Observed volume of distribution at steady state in CD-1 mouse at 3 mg/kg, iv measured upto 24 hrs by LC-MS/MS analysis; type: ADME, organism-based; conditions: in vivo, read-out: Vdss
[20] = Oral bioavailability in CD-1 mouse at 30 mg/kg measured upto 24 hrs by LC-MS/MS analysis; type: ADME, organism-based; conditions: in vivo
[21] = Dose normalized AUClast in CD-1 mouse at 3 mg/kg, iv measured upto 24 hrs by LC-MS/MS analysis; type: ADME, organism-based; conditions: in vivo
[22] = Dose normalized AUClast in CD-1 mouse at 50 mg/kg, ip measured upto 24 hrs by LC-MS/MS analysis; type: ADME, organism-based; conditions: in vivo
[23] = Cmax in CD-1 mouse at 30 mg/kg, po measured upto 24 hrs by LC-MS/MS analysis; type: ADME, organism-based; design: time < 24 hrs, dose 30 mg/kg, route po; conditions: in vivo
[24] = Half life in CD-1 mouse at 30 mg/kg, po measured upto 24 hrs by LC-MS/MS analysis; type: ADME, organism-based; conditions: in vivo
[25] = AUClast in CD-1 mouse at 3 mg/kg, iv measured upto 24 hrs by LC-MS/MS analysis; type: ADME, organism-based; design: time < 24 hrs, dose 3 mg/kg, route iv; conditions: in vivo
[26] = Half life in CD-1 mouse at 3 mg/kg, iv measured upto 24 hrs by LC-MS/MS analysis; type: ADME, organism-based; conditions: in vivo
[27] = AUCinfinity in CD-1 mouse at 3 mg/kg, iv measured upto 24 hrs by LC-MS/MS analysis; type: ADME, organism-based; design: time < 24 hrs, dose 3 mg/kg, route iv; conditions: in vivo
[28] = AUCinfinity in CD-1 mouse at 30 mg/kg, po measured upto 24 hrs by LC-MS/MS analysis; type: ADME, organism-based; design: time < 24 hrs, dose 30 mg/kg, route po; conditions: in vivo
[29] = target: T1, Galactokinase; assay: Inhibition of human GALK1 in GALT-deficient human fibroblast assessed as reduction in gal-1P level incubated for 2 to 4 hrs by cellular Gal-1P accumulation assay; type: cell-based; conditions: dose 0.5-3 µM, time 2-4 hrs, DDE = dose-dependent effect

T1 sequence (P51570 whole entry): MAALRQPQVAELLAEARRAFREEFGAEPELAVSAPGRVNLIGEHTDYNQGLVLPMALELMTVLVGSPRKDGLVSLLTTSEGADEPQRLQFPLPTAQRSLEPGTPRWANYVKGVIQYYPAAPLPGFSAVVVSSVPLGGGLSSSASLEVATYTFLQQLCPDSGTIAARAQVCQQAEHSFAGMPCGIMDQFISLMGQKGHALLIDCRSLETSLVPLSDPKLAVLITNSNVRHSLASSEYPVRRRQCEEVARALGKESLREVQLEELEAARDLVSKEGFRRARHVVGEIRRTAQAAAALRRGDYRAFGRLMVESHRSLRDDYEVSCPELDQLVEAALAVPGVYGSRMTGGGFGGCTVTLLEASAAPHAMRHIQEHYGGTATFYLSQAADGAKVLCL

Compound: CC1=C(C(=O)NCc2cnn(C)c2)C(c2ccc(C)cc2Cl)N=C(Nc2nc3cccc(N)c3o2)N1 (racemic)
- permeability ([1]; pampa, pH 7.4, 0.5 h): 315 10^-6 cm/s
- IC50 ([2]; read-out: pIC50 (converted)): 209 nM
- t1/2 [3]: 11 min
- t1/2 [4]: 32 min
- solubility kinetic at 6 h, 150 µM [5]: 8.3 µg/mL (≈ 16.4 µM)

Compound: CCn1cc(CNC(=O)C2=C(C)NC(Nc3nc4ccc(F)c(N)c4o3)=NC2c2ccc(C)cc2Cl)cn1 (racemic)
- Papp at 0.5 h [1]: 410 ×10⁻⁶ cm/s
- IC50 ([2]; read-out: IC50): 48 nM
- t1/2 [3]: 14 min
- t1/2 [4]: 8 min
- solubility kinetic at 6 h, 150 µM [5]: < 1 µg/mL

Compound: CC1=C(C(=O)NCc2cccc(CO)c2)C(c2ccccc2Cl)N=C(Nc2nc3ccccc3o2)N1 (stereo not drawn)
- IC50 ([2]; read-out: pIC50 (converted)): 4680 nM

Compound: COc1ccc(C2N=C(Nc3nc4ccc(F)cc4o3)NC(C)=C2C(=O)Nc2cc(C(=O)O)ccn2)c(Cl)c1 (stereo not drawn)
- IC50 ([2]; read-out: pIC50 (converted)): 447 nM

Compound: CC1=C(C(=O)Nc2ccccc2)C(c2ccccc2Cl)N=C(Nc2nc3ccccc3o2)N1 (stereo not drawn)
- IC50 ([2]; read-out: pIC50 (converted)): 10500 nM

Compound: CC1=C(C(=O)Nc2cc(C(=O)O)ccn2)C(c2ccccc2Br)N=C(Nc2nc3ccc(F)cc3o2)N1 (stereo not drawn)
- IC50 ([2]; read-out: pIC50 (converted)): 562 nM

Compound: COc1ccc2oc(NC3=NC(c4ccccc4Cl)C(C(=O)Nc4cc(C(=O)O)ccn4)=C(C)N3)nc2c1 (stereo not drawn)
- IC50 ([2]; read-out: pIC50 (converted)): 6610 nM

Compound: CC1=C(C(=O)Nc2cccnc2)C(c2ccccc2Cl)N=C(Nc2nc3ccccc3o2)N1 (stereo not drawn)
- IC50 ([2]; read-out: pIC50 (converted)): 6610 nM

Compound: CC1=C(C(=O)NCc2cnn(C)c2)C(c2ccccc2Cl)N=C(Nc2nc3ccccc3o2)N1 (stereo not drawn)
- IC50 ([2]; read-out: pIC50 (converted)): 1410 nM

Compound: CC1=C(C(=O)NCc2cnn(C)c2)[C@H](c2ccc(C)cc2Cl)N=C(Nc2nc3cccc(N)c3o2)N1
- Papp at 0.5 h [1]: 661 ×10⁻⁶ cm/s
- IC50 ([2]; read-out: pIC50 (converted)): 120 nM
- t1/2 [3]: 7 min
- t1/2 [4]: 37 min
- solubility kinetic at 6 h, 150 µM [5]: 17 µg/mL (≈ 33.7 µM)

Compound: CC1=C(C(=O)Nc2cc(C(=O)O)ccn2)C(c2ccccc2Cl)N=C(Nc2nc3cccc(C)c3o2)N1 (stereo not drawn)
- IC50 ([2]; read-out: pIC50 (converted)): 933 nM

Compound: CC1=C(C(=O)NCc2cn(C)cn2)C(c2ccccc2Cl)N=C(Nc2nc3ccccc3o2)N1 (stereo not drawn)
- IC50 ([2]; read-out: pIC50 (converted)): 1050 nM

Compound: CC1=C(C(=O)NCc2cccc(C(=O)O)c2)C(c2ccccc2Cl)N=C(Nc2nc3ccccc3o2)N1 (stereo not drawn)
- IC50 ([2]; read-out: pIC50 (converted)): 9330 nM

Compound: CC1=C(C(=O)Nc2nnc(C)s2)C(c2ccccc2Cl)N=C(Nc2nc3ccccc3o2)N1 (stereo not drawn)
- IC50 ([2]; read-out: pIC50 (converted)): 5250 nM

Compound: CC1=C(C(=O)NCc2cnn(C)c2)C(c2ccc(C)cc2Cl)N=C(Nc2nc3ccc(F)c(N)c3o2)N1 (racemic)
- AUClast [6]: 15.96 µM·h
- Papp at 0.5 h [1]: 485 ×10⁻⁶ cm/s
- IC50 ([2]; read-out: IC50): 48 nM
- Cmax [7]: 21.9 µM
- C0 at 24 h [8]: 8.25 µM
- Tmax [9]: 79.98 min
- AUC [10]: 80.36 µM·h
- concentration at 7 h [11]: > 1 µM
- Cp [12]: Bld
- AUClast [13]: 80.36 µM·h
- inhibition [14]: 50%
- t1/2 [15]: 102 min
- PPB [16]: 98.74%
- Tmax [17]: 40.2 min
- AUClast/dose [18]: 278 ng·h/mL/(mg/kg)
- Vd [19]: 0.652 L/kg
- F [20]: 33%
- t1/2 [3]: 14 min
- AUClast/dose [21]: 812 ng·h/mL/(mg/kg)
- AUClast/dose [22]: 841 ng·h/mL/(mg/kg)
- Cmax [23]: 7.02 µM
- t1/2 [24]: 136 min
- AUClast [25]: 4.66 µM·h
- solubility kinetic at 6 h, 150 µM [5]: 1.3 µg/mL (≈ 2.49 µM)
- t1/2 [26]: 24.6 min
- AUC [27]: 4.81 µM·h
- AUC [28]: 16.06 µM·h
- inhibition [29]: Dde

Compound: CC1=C(C(=O)Nc2cccc(C(=O)O)c2)C(c2ccccc2Cl)N=C(Nc2nc3ccccc3o2)N1 (stereo not drawn)
- IC50 ([2]; read-out: pIC50 (converted)): 2630 nM

Compound: COc1ccc2nc(NC3=NC(c4ccccc4Cl)C(C(=O)Nc4cc(C(=O)O)ccn4)=C(C)N3)oc2c1 (stereo not drawn)
- IC50 ([2]; read-out: pIC50 (converted)): 19500 nM

Compound: CC1=C(C(=O)Nc2cc(C(=O)O)ccn2)C(c2ccccc2Cl)N=C(Nc2nc3cc(Cl)ccc3o2)N1 (stereo not drawn)
- IC50 ([2]; read-out: pIC50 (converted)): 2630 nM

Compound: CC1=C(C(=O)Nc2cc(C(=O)O)ccn2)C(c2ccc(N3CCOCC3)cc2Cl)N=C(Nc2nc3ccc(F)cc3o2)N1 (stereo not drawn)
- IC50 ([2]; read-out: pIC50 (converted)): 447 nM
